According to patent US20110200625A1, “PHARMACEUTICAL COMPOSITION” (priority 2010, published 2011):

Test: presence of drug in the epidermis after the composition is applied to the skin
Assay type: in vivo
Conditions: after the composition containing the drug has been applied to the skin
From the text: In the present invention, the Hsieh enhancer is used in a different way, that is, as a penetration-facilitator for delivery of drug to the dermal layer of the skin without significant, if any, systemic absorption of the drug into the blood stream of the user.

drug observed to be present in the epidermis, time after application: 72 h
SMILES: CO[C@H]1C[C@@H]2CC[C@@H](C)[C@@](O)(O2)C(=O)C(=O)N2CCCC[C@H]2C(=O)O[C@H]([C@H](C)C[C@@H]2CC[C@@H](O)[C@H](OC)C2)CC(=O)[C@H](C)/C=C(\C)[C@@H](O)[C@@H](OC)C(=O)[C@H](C)C[C@H](C)/C=C/C=C/C=C/1C [rapamycin]
